How the values were obtained:
[1] = test system: NCI-H1975; test: Induction of apoptosis in human NCI-H1975 cells harboring EGFR T790M/L858R mutant assessed as early apoptotic cells at 10 nM measured after 72 hrs by Annexin-V-FITC/propidium iodide staining based flow cytometry (reference value: 0.72%); type: functional
[2] = test system: NCI-H292; test: Antiproliferative activity against human NCI-H292 cells harboring wild-type EGFR by MTT assay; type: functional, cell-based
[3] = MRT in Sprague-Dawley rat at 2 mg/kg, iv administered as single dose; type: ADME, organism-based; conditions: in vivo
[4] = test system: NCI-H1975; test: Antitumor activity against human NCI-H1975 cells harboring EGFR T790M/L858R mutant xenografted in nude mouse assessed as tumor volume at 15 mg/kg, po administered once daily for 7 days (reference value: 843 mm3); type: functional; conditions: time 7 day
[5] = Cytotoxicity against HLF cells assessed as reduction in cell viability by MTT assay; type: cell-based; conditions: Homo sapiens
[6] = Selectivity ratio of IC50 for antiproliferative activity against human NCI-H292 cells harboring wild-type EGFR to IC50 for antiproliferative activity against human NCI-H1975 cells harboring EGFR T790M/L858R mutant; type: functional
[7] = test system: NCI-H1975; test: Induction of mitochondrial membrane potential loss in human NCI-H1975 cells harboring EGFR T790M/L858R mutant assessed as cell population with mitochondrial membrane potential collapse at 10 nM measured after 24 hrs by JC1 staining based fluorescence microscopic analysis (reference value: 5.49%); type: functional
[8] = species on record: Homo sapiens; test: Selectivity ratio of IC50 for inhibition of recombinant human GST-tagged EGFR expressed in baculovirus expression system to IC50 for inhibition of recombinant human GST-tagged EGFR T790M/L858R double mutant (668 to 1210 residues) expressed in baculovirus expression system
[9] = test system: NCI-H1975; test: Antimigratory activity against human NCI-H1975 cells harboring EGFR T790M/L858R mutant assessed as inhibition of cell migration at 3 nM measured after 24 hrs by phase contrast microscopic analysis relative to control; type: functional
[10] = test system: NCI-H1975; test: Induction of apoptosis in human NCI-H1975 cells harboring EGFR T790M/L858R mutant assessed as early apoptotic cells at 5 nM measured after 72 hrs by Annexin-V-FITC/propidium iodide staining based flow cytometry (reference value: 0.72%); type: functional
[11] = test system: NCI-H1975; test: Induction of apoptosis in human NCI-H1975 cells harboring EGFR T790M/L858R mutant assessed as necrotic cells at 10 nM measured after 48 hrs by Annexin-V-FITC/propidium iodide staining based flow cytometry (reference value: […]); type: functional
[12] = test system: NCI-H1975; test: Induction of apoptosis in human NCI-H1975 cells harboring EGFR T790M/L858R mutant assessed as necrotic cells at 1 nM measured after 48 hrs by Annexin-V-FITC/propidium iodide staining based flow cytometry (reference value: […]); type: functional
[13] = Toxicity in nude mouse xenografted with human NCI-H1975 cells harboring EGFR T790M/L858R mutant assessed as body weight loss at 15 mg/kg, po administered once daily for 7 days relative to control; type: organism-based; conditions: in vivo, 168 h, time 7 day
[14] = test system: NCI-H1975; test: Induction of apoptosis in human NCI-H1975 cells harboring EGFR T790M/L858R mutant assessed as viable cells at 5 nM measured after 48 hrs by Annexin-V-FITC/propidium iodide staining based flow cytometry (reference value: 98.63%); type: functional; conditions: read-out: Activity
[15] = test system: NCI-H1975; test: Induction of mitochondrial membrane potential loss in human NCI-H1975 cells harboring EGFR T790M/L858R mutant assessed as cell population with mitochondrial membrane potential collapse at 5 nM measured after 24 hrs by JC1 staining based fluorescence microscopic analysis (reference value: 5.49%); type: functional
[16] = test system: NCI-H1975; test: Induction of apoptosis in human NCI-H1975 cells harboring EGFR T790M/L858R mutant assessed as viable cells at 1 nM measured after 48 hrs by Annexin-V-FITC/propidium iodide staining based flow cytometry (reference value: 98.63%); type: functional; conditions: read-out: Activity
[17] = biological target: Epidermal growth factor receptor (Homo sapiens, UniProt P00533); test: Inhibition of recombinant human GST-tagged EGFR expressed in baculovirus expression system using tyr-04 peptide as substrate incubated for 60 mins in presence of ATP by Z'-LYTE assay
Sequence of Epidermal growth factor receptor (P00533 whole entry): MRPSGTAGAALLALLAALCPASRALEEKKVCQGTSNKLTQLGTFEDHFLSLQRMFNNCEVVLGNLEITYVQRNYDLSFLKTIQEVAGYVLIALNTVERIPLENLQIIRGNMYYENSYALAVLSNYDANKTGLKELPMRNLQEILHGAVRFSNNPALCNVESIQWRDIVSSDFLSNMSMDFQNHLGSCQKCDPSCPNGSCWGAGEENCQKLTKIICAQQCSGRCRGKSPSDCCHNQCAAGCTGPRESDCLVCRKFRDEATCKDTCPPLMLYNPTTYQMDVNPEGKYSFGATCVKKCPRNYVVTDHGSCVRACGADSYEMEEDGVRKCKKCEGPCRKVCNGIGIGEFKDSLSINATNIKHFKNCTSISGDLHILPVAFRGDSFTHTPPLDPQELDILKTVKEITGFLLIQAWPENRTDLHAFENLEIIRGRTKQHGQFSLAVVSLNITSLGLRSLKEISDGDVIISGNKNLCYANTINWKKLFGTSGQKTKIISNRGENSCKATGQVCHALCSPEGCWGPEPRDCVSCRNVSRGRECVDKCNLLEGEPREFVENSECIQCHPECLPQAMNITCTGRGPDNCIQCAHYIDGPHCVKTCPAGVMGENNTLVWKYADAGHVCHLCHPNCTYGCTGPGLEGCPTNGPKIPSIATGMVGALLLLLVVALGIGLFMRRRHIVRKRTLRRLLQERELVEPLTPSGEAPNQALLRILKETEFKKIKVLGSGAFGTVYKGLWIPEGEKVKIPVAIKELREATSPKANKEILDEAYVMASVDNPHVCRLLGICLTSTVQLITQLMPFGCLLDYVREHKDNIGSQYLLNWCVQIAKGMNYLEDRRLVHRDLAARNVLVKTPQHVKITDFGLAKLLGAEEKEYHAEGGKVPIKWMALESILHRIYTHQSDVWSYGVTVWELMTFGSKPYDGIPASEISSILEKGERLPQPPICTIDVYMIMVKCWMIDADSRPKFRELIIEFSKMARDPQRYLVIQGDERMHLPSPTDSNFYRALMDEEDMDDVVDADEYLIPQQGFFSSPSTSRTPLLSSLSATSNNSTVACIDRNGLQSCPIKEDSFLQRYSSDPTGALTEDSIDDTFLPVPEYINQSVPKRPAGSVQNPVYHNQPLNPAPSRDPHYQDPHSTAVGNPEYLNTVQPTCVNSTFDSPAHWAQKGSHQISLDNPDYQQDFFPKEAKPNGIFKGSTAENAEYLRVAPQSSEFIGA

[18] = Toxicity in nude mouse xenografted with human NCI-H1975 cells harboring EGFR T790M/L858R mutant assessed as mortality at 15 mg/kg, po administered once daily for 7 days relative to control; type: organism-based; conditions: in vivo, time 7 day, read-out: Activity
[19] = test system: NCI-H1975; test: Induction of apoptosis in human NCI-H1975 cells harboring EGFR T790M/L858R mutant assessed as late apoptotic cells at 1 nM measured after 72 hrs by Annexin-V-FITC/propidium iodide staining based flow cytometry (reference value: 0.13%); type: functional
[20] = Half life in Sprague-Dawley rat at 2 mg/kg, iv administered as single dose; type: ADME, organism-based; conditions: in vivo
[21] = test system: PC-9; test: Antiproliferative activity against human PC-9 cells harboring EGFR L858R mutant by MTT assay; type: functional, cell-based
[22] = test system: NCI-H1975; test: Induction of apoptosis in human NCI-H1975 cells harboring EGFR T790M/L858R mutant assessed as viable cells at 1 nM measured after 72 hrs by Annexin-V-FITC/propidium iodide staining based flow cytometry (reference value: 98.66%); type: functional; conditions: read-out: Activity
[23] = AUC (0 to infinity) in Sprague-Dawley rat at 2 mg/kg, iv administered as single dose; type: ADME, organism-based; parameters: route intravenous, time infinity, dose 2 mg/kg; conditions: in vivo
[24] = Cmax in Sprague-Dawley rat at 2 mg/kg, iv administered as single dose; type: ADME, organism-based; parameters: route intravenous, dose 2 mg/kg; conditions: in vivo
[25] = MRT in Sprague-Dawley rat at 10 mg/kg, po administered as single dose; type: ADME, organism-based; conditions: in vivo
[26] = test system: NCI-H1975; test: Induction of mitochondrial membrane potential loss in human NCI-H1975 cells harboring EGFR T790M/L858R mutant assessed as cells with intact mitochondrial membrane potential at 10 nM measured after 24 hrs by JC1 staining based fluorescence microscopic analysis (reference value: 94.51%); type: functional
[27] = test system: HK-2; test: Cytotoxicity against HK-2 cells assessed as reduction in cell viability by MTT assay; type: cell-based; conditions: Homo sapiens
[28] = test system: NCI-H1975; test: Antimigratory activity against human NCI-H1975 cells harboring EGFR T790M/L858R mutant assessed as inhibition of cell migration at 9 nM measured after 24 hrs by phase contrast microscopic analysis relative to control; type: functional
[29] = Cytotoxicity against HEK293-A cells assessed as reduction in cell viability by MTT assay; type: cell-based; conditions: Homo sapiens
[30] = AUC (0 to infinity) in Sprague-Dawley rat at 10 mg/kg, po administered as single dose; type: ADME, organism-based; parameters: time infinity, route oral, dose 10 mg/kg; conditions: in vivo
[31] = test system: NCI-H1975; test: Induction of apoptosis in human NCI-H1975 cells harboring EGFR T790M/L858R mutant assessed as late apoptotic cells at 10 nM measured after 48 hrs by Annexin-V-FITC/propidium iodide staining based flow cytometry (reference value: 0.04%); type: functional
[32] = test system: NCI-H1975; test: Induction of apoptosis in human NCI-H1975 cells harboring EGFR T790M/L858R mutant assessed as viable cells at 5 nM measured after 72 hrs by Annexin-V-FITC/propidium iodide staining based flow cytometry (reference value: 98.66%); type: functional; conditions: read-out: Activity

C=CC(=O)Nc1cc(Nc2nccc(-c3cn(C4CC4)c4ccccc34)n2)c(OC)cc1[S+]([O-])CCN(C)C (configuration not stated)
Activity [1]: 44.72%
IC50 [2]: 718 nM
MRT [3]: 1.01 h
Activity [4]: 56 mm3
IC50 [5]: 6040 nM
Ratio IC50 [6]: 89.8
Activity [7]: 40.31%
Ratio IC50 [8]: 15.8
inhibition at 0.003 µM [9]: 39%
Activity [10]: 19.59%
Activity [11]: 21.2%
Activity [12]: 5.52%
Activity [13]: < 5%
viability at 0.005 µM [14]: 68.2%
Activity [15]: 26.9%
viability at 0.001 µM [16]: 82%
IC50 [17]: 4.1 nM
mortality at 168 h [18]: < 5%
Activity [19]: 2.93%
half-life [20]: 0.7 h
IC50 [21]: 4 nM
viability at 0.001 µM [22]: 70.3%
AUC(0-inf) [23]: 340 ng·h/mL
Cmax [24]: 503 ng/mL
MRT [25]: 3.61 h
Activity [26]: 59.69%
IC50 [27]: 5860 nM
inhibition at 0.009 µM [28]: 47%
IC50 [29]: 3060 nM
AUC(0-inf) [30]: 722 ng·h/mL
Activity [31]: 21.25%
viability at 0.005 µM [32]: 52.5%

Reference: ChEMBL document CHEMBL4706659, “Design, synthesis and biological evaluation of novel 2,4-diaryl pyrimidine derivatives as selective EGFR inhibitors” (Eur J Med Chem, 2021)
